This is an account of results in patent publication US20040146509A1, “Methods for improvement of lung function using TGF-beta inhibitors” (priority 2002, published 2004).

For the experiment, the system named is bleomycin-induced lung fibrosis. As to the kind of experiment: Lung hydroxyproline content following bleomycin-induced lung fibrosis (14 days). It is filed as in vivo, rat. To be noted: rats, bleomycin intratracheal day 0; day 1-14: Compound B 30 mg/kg oral three times a day, Triamcinolone 8 mg/kg i.p. every other day; versus bleo+saline; FIG. 8. As to the method: Male Sprague-Dawley rats weighing 225 to 250 were purchased from Charles River Laboratories, Inc. Rats were housed in groups of two in the animal facility provided with filtered air and constant temperature and humidity. All animal maintenance was in accordance with Scios' guidelines for animal welfare. The rats were allowed to acclimate to the new environment for one week before all treatment. A 12:12 hour light-dark cycle was maintained, and the animals had free access to ad libitum food and water.
Day 0: To induce pulmonary fibrosis, rats were intubated with 0.5 ml of saline or 0.5 ml of 1.0 unit/ml of bleomycin by intratracheal injection under anesthesia. The anesthetic solution used is a mixture of 0.4 ml of ketamine (100 mg/ml) and 0.25 ml of xylazine (20 mg/ml) at a dose of 1.3 ml/kg.
Group 2 & 3: Rats were weighed and orally dosed with 5 ml/kg of saline three times a day […]
To estimate the total amount of collagen in fibrotic lungs, the hydroxyproline content of the whole lung was measured in each group according to the method described by Woessner Biochim Biophys Acta. […]
Briefly, lungs were harvested and homogenized in 15 ml of 1×PBS with a Polytron homogenizer. […] The hydroxyproline content was the measured using the method of Woessner.
The data were analyzed using a one-way analysis of variance (ANOVA) with a Bonferroni's multiple comparisons post tests. […]

With `C[C@]12C=CC(=O)C=C1CC[C@H]1[C@@H]3C[C@@H](O)[C@](O)(C(=O)CO)[C@@]3(C)C[C@H](O)[C@@]12F` [Triamcinolone], the lung hydroxyproline content result is reported as “significantly reducing lung hydroxyproline content”.
